Source: patent US10618918B2, “Substituted boronic acids as antimicrobials” (priority 2015, dated 2020)

Columns and labels:
KP1004 KPC-2 [1] = assay: Biapenem potentiation (MPC@1), strain KP1004 KPC-2; type: cell-based; conditions: minimum BLI concentration inhibiting growth with biapenem 1 μg/mL; tested up to 40 μg/mL
Description: (§1) Biapenem was present in the test medium at 1 μg/mL. […] Table 3 summarizes the BLI potency of biapenem potentiation (MPC@1) for two strains overexpressing class A (KPC) and class D (OXA-48) carbapenemases. Biapenem MIC for each strain is also shown.

KP1086 OXA-48 = assay: Biapenem potentiation (MPC@1), strain KP1086 OXA-48; type: cell-based; conditions: minimum BLI concentration inhibiting growth with biapenem 1 μg/mL; tested up to 40 μg/mL
Description: as §1

AB1053 OXA-72 = assay: Meropenem potentiation (MPC@8), strain AB1053 OXA-72; type: cell-based, Acinetobacter baumannii; conditions: minimum BLI concentration inhibiting growth with meropenem 8 μg/mL; tested up to 20 μg/mL
AB1054 OXA-23 = assay: Meropenem potentiation (MPC@8), strain AB1054 OXA-23; type: cell-based, Acinetobacter baumannii; conditions: minimum BLI concentration inhibiting growth with meropenem 8 μg/mL; tested up to 20 μg/mL
[2] = biological target: T1, purified class A, C and D enzymes (β-lactamases) (Acinetobacter baumannii, UniProt Q9L4P2); assay: biochemical; type: biochemical; conditions: purified OXA-23; nitrocefin (NCF) as reporter substrate
T1 construct: rows headed: Ki (OXA-23, NCF), uM; other: purified OXA-23; nitrocefin (NCF) as reporter substrate

[3] = biological target: purified class A, C and D enzymes (β-lactamases) (Enterobacter cloacae, UniProt P05364); assay: biochemical; type: biochemical
[4] = biological target: purified class A, C and D enzymes (β-lactamases) (Escherichia coli, UniProt Q9L5C7); assay: biochemical; type: biochemical; conditions: purified CTX-M-14; nitrocefin (NCF) as reporter substrate
[5] = biological target: purified class A, C and D enzymes (β-lactamases) (Klebsiella pneumoniae, UniProt Q6XEC0); assay: biochemical; type: biochemical; conditions: purified OXA-48; nitrocefin (NCF) as reporter substrate
[6] = biological target: purified class A, C and D enzymes (β-lactamases) (Klebsiella pneumoniae, UniProt Q9F663); assay: biochemical; type: biochemical; conditions: purified KPC-2; nitrocefin (NCF) as reporter substrate
[7] = biological target: T2, purified class A, C and D enzymes (β-lactamases) (Pseudomonas aeruginosa, UniProt P24735); assay: biochemical; type: biochemical
T2 construct: rows headed: Ki (Pa-AmpC, NCF), uM; other: purified Pa-AmpC; nitrocefin (NCF) as reporter substrate

ECL1002 = assay: Aztreonam potentiation (MPC@4), strain ECL1002; conditions: minimum BLI concentration inhibiting growth with aztreonam 4 μg/mL; tested up to 40 μg/mL
ec308 SHV-5 = assay: Aztreonam potentiation (MPC@4), strain ec308 SHV-5; conditions: minimum BLI concentration inhibiting growth with aztreonam 4 μg/mL; tested up to 40 μg/mL
ec302 TEM-10 = assay: Aztreonam potentiation (MPC@4), strain ec302 TEM-10; conditions: minimum BLI concentration inhibiting growth with aztreonam 4 μg/mL; tested up to 40 μg/mL
KP1004 KPC-2 [8] = assay: Aztreonam potentiation (MPC@4), strain KP1004 KPC-2; conditions: minimum BLI concentration inhibiting growth with aztreonam 4 μg/mL; tested up to 40 μg/mL
EC1010 CMY-6 = assay: Aztreonam potentiation (MPC@4), strain EC1010 CMY-6; conditions: minimum BLI concentration inhibiting growth with aztreonam 4 μg/mL; tested up to 40 μg/mL
KP1010 SHV-12 = assay: Aztreonam potentiation (MPC@4), strain KP1010 SHV-12; conditions: minimum BLI concentration inhibiting growth with aztreonam 4 μg/mL; tested up to 40 μg/mL
KP1009 CTX-M-15 = assay: Aztreonam potentiation (MPC@4), strain KP1009 CTX-M-15; conditions: minimum BLI concentration inhibiting growth with aztreonam 4 μg/mL; tested up to 40 μg/mL
KP1005 CTX-M-14 = assay: Tigemonam potentiation (MPC@4), strain KP1005 CTX-M-14; conditions: minimum BLI concentration inhibiting growth with tigemonam 4 μg/mL; tested up to 40 μg/mL

T2 sequence (P24735 whole entry): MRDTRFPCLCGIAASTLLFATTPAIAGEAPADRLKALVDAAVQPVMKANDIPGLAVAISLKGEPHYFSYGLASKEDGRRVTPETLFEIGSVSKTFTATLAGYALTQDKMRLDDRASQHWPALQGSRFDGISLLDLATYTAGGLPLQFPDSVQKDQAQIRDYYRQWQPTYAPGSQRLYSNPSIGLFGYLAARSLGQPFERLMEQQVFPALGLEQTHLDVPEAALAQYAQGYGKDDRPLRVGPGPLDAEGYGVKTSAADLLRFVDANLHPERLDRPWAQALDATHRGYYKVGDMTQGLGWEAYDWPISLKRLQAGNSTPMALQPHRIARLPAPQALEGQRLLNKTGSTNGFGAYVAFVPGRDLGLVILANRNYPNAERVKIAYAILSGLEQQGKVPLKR
Chain of purified class A, C and D enzymes (β-lactamases) (Escherichia coli, UniProt Q9L5C7) (Q9L5C7 entry or part of it): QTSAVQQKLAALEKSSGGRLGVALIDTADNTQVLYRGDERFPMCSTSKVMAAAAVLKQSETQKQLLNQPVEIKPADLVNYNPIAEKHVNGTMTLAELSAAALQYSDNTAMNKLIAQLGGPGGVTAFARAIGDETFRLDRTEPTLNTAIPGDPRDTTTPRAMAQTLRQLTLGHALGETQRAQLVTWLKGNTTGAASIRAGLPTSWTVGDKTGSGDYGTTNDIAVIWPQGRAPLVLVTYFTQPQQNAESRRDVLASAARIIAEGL
Chain of purified class A, C and D enzymes (β-lactamases) (Enterobacter cloacae, UniProt P05364) (P05364 21-381): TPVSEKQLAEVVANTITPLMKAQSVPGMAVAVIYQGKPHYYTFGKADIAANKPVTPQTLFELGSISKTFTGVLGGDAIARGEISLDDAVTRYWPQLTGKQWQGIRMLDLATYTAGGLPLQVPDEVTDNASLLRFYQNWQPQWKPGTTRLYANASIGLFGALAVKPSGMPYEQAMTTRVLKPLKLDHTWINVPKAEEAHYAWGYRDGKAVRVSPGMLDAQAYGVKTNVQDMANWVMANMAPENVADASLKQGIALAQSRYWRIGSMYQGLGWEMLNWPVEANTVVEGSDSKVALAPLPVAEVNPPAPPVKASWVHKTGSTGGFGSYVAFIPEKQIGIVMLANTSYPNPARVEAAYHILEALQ
T1 sequence (Q9L4P2 whole entry): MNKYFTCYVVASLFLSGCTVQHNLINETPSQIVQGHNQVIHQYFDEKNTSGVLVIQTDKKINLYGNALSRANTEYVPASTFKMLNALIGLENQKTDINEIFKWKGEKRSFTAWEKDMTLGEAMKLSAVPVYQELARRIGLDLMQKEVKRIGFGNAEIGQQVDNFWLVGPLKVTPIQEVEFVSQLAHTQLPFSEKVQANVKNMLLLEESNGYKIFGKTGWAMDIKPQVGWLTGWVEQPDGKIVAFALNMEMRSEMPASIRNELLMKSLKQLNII

| SMILES | BPM MPC1 KP1004 KPC-2 (KP1004 KPC-2 [1]) | BPM MPC1 OXA-48 KP1086 (KP1086 OXA-48) | MPM MPC8 AB1053 OXA-72 (AB1053 OXA-72) | MPM MPC8 AB1054 OXA-23 (AB1054 OXA-23) | Ki [2] | Ki (P99, NCF), uM [3] | Ki (CTX-M-14, NCF), uM [4] | Ki (OXA-48, NCF), uM [5] | Ki (KPC-2, NCF), uM [6] | Ki [7] | AZT MPC4 ECL1002 (ECL1002) | AZT MPC4 SHV-5 ec308 (ec308 SHV-5) | AZT MPC4 TEM-10 ec302 (ec302 TEM-10) | AZT MPC4 KPC-2 KP1004 (KP1004 KPC-2 [8]) | AZT MPC4 CMY-6 EC1010 (EC1010 CMY-6) | AZT MPC4 SHV-12 KP1010 (KP1010 SHV-12) | AZT MPC4 CTX-M-15 KP1009 (KP1009 CTX-M-15) | TIG MPC4 CTX-M-14 KP1005 (KP1005 CTX-M-14) |
| --- | --- | --- | --- | --- | --- | --- | --- | --- | --- | --- | --- | --- | --- | --- | --- | --- | --- | --- |
| O=C(O)c1c(-c2c[nH]nn2)ccc2c1O[B-](O)(O)CC2 [Compound 16, Disodium; 4,4-dihydroxy-8-(1H-triazol-5-yl)-5-oxa-4-boranuidabicyclo[4.4.0]deca-1(6),7,9-triene-7-carboxylate] | X (X = MPC@1 ≤ 5 μg/mL) | Y (Y = 5 μg/mL < MPC@1 ≤ 20 μg/mL) | X (X = MPC@1 ≤ 5 μg/mL) | Y (Y = 5 μg/mL < MPC@1 ≤ 20 μg/mL) | < 100 nM | X (key: X = Ki ≤ 0.1 μM; Y = 0.1 μM < Ki ≤ 1 μM; Z = Ki > 1 μM) | X (X = Ki ≤ 0.1 μM) | X (X = Ki ≤ 0.1 μM) | X (X = Ki ≤ 0.1 μM) | < 100 nM | X (X = MPC@4 ≤ 5 μg/mL) | Y (Y = 5 μg/mL < MPC@4 ≤ 20 μg/mL) | X (X = MPC@4 ≤ 5 μg/mL) | X (X = MPC@4 ≤ 5 μg/mL) | X (X = MPC@4 ≤ 5 μg/mL) | X (X = MPC@4 ≤ 5 μg/mL) | X (X = MPC@4 ≤ 5 μg/mL) | Y (Y = 5 μg/mL < MPC@4 ≤ 20 μg/mL) |
| O=C([O-])c1c(CSC2CNC2)ccc2c1O[B-](O)(O)CC2.[Na+].[Na+] [Compound 19, Disodium; 8-(azetidin-3-ylsulfanylmethyl)-4,4-dihydroxy-5-oxa-4-boranuidabicyclo[4.4.0]deca-1(6),7,9-triene-7-carboxylate] | X (X = MPC@1 ≤ 5 μg/mL) | X (X = MPC@1 ≤ 5 μg/mL) | X (X = MPC@1 ≤ 5 μg/mL) | X (X = MPC@1 ≤ 5 μg/mL) | < 100 nM | X (key: X = Ki ≤ 0.1 μM; Y = 0.1 μM < Ki ≤ 1 μM; Z = Ki > 1 μM) | X (X = Ki ≤ 0.1 μM) | X (X = Ki ≤ 0.1 μM) | X (X = Ki ≤ 0.1 μM) | < 100 nM | Y (Y = 5 μg/mL < MPC@4 ≤ 20 μg/mL) | X (X = MPC@4 ≤ 5 μg/mL) | Y (Y = 5 μg/mL < MPC@4 ≤ 20 μg/mL) | X (X = MPC@4 ≤ 5 μg/mL) | X (X = MPC@4 ≤ 5 μg/mL) | X (X = MPC@4 ≤ 5 μg/mL) | X (X = MPC@4 ≤ 5 μg/mL) | Z (Z = MPC@4 > 20 μg/mL) |
